The source of these data is article PMC3793977, “High-Throughput Screening (HTS) and Hit Validation to Identify Small Molecule Inhibitors with Activity against NS3/4A proteases from Multiple Hepatitis C Virus Genotypes” (PLoS ONE, 2013).

One data set addresses T1, Chymotrypsin (Homo sapiens, UniProt P17538).
T1 construct: purchased Sigma
Description: Inhibitor selectivity assay, chymotrypsin (fluorometric). It is filed as biochemical. As to the method: (§1) To test for selectivity, two human serine proteases, Trypsin and Chymotrypsin (Sigma), were tested with the top two hit compounds from HTS using a fluorometric assay. The fluorogenic substrates used in this study were N-benzoyl-L-Arg-7-amido-4-methylcoumarin (Sigma) and N-succinyl-Ala-Ala-Phe-7-amido-4- methylcoumarin (Sigma) for trypsin and chymotrypsin, respectively. All assays were performed in 384-well black plates (Corning) in a total volume of 24 µL of PBS (pH 7.4) buffer containing 0.01% Triton, 0.1 mg/mL BSA, and 2 mM GSH in triplicate. A series of compound concentrations (0 to 200 µM final concentration at 2-fold serial dilution) in 100% DMSO was prepared in a 384-well plate. 20 µL of trypsin (0.01 mg/mL) and chymotrypsin (0.0001 mg/mL) solutions were distributed into wells, and 0.5 µL of varying concentration of compounds were added and incubated for 10 minutes. The enzyme reaction was initiated by adding 5 µL of the substrate (50 µM final concentration), and fluorescence intensity was continuously monitored at excitation/emission wavelengths of 350 nm/460 nm for 10 minutes.

Data set [1] in a line: Microsomal stability assay. It is filed as in vitro ADME, mouse. The conditions noted are these: Balb/c, mouse, microsomes, pH 7.4. As to the method: A typical incubation mixture (100 µL total volume) for the metabolic stability studies contained 1 µM (final concentration) test compounds, 0.5 mg/mL microsomal protein (pooled Balb/c mouse liver microsomes prepared as described previously), 100 mM Tris-HCl buffer (pH7.4), and NADPH-generating system (5 mM isocitric acid, 0.2 unit/mL isocitric acid dehydrogenase, 5 mM magnesium chloride, 1 mM NADP^+). After pre-incubation at 37°C for 5 minutes, the reactions were started by addition of NADP^+ and further incubated for another 0, 5, 10, and 20 minutes. For control experiments, NADPH and/or liver microsomes were omitted from these incubations. The reactions were terminated by adding 100 µL ice-cold acetonitrile containing phenytoin (1 µM) as an internal standard and kept on ice for 30 minutes, followed by centrifugation at 16,100 g for 15 minutes to obtain the supernatant. Aliquots (5 µL) were then analyzed for substrate disappearance using liquid chromatography-tandem mass spectrometry (Agilent 1200 HPLC interfaced with Applied Biosystems Qtrap 3200) equipped with an electrospray ion source. Chromatographic separation was carried out with a Waters XTerra MS C18 column (2.1×50 mm, 3.5 µm; Agilent Technologies, Santa Clara, CA). The mobile phases consisted of solvent A (0.1% (v/v) aqueous formic acid) and solvent B (acetonitrile). A 250 µL/min flow rate gradient was developed for each test compound over 10 minutes (Table S2 in File S1). Mass detection of test substrates and internal standard were followed in a positive ion mode by examining multiple reaction monitoring (MRM) pairs. The spraying needle voltage was set at 5000 V. Curtain gas was set at 20; gas 1 and gas 2 were set at 45 and 50, respectively; collision assisted dissociation gas was at medium; and the source heater probe temperature was at 500°C. The test compounds were quantified by comparing the ratio of ion currents obtained for the substrates and an internal standards calibration curve. Data acquisition and processing were accomplished using Analyst software (version 1.4.1; Applied Biosystems). Apparent half-lives (t1/2) for the disappearance of parent drugs were calculated from the pseudo-first-order rate constants (ke) obtained by linear regression of plots of log [drug remaining] versus time (GraphPad Prism 5 software, La Jolla, CA) using the equation: t1/2 = 0.693/ke.

Data set [2] concerns the target T2, full-length NS3/4A protease (genotype 1b) (Hepatitis C virus genotype 1b, UniProt Q9WMX2).
T2 construct: wild-type HCV NS3 (HCV polyprotein residues 1027–1657); His-tag (N); made in house
Description: biochemical. The conditions noted are these: for IC50: purified full-length NS3/4A, genotype 1b wild-type; for inhibitory activity (SAR, in words): preliminary SAR of compound 12 analogues; for inhibition at 50 µM: read-out: percent inhibition at 50 µM compound concentration. As for the experimental part: All assays were done in duplicate in black 384-well plates (Matrix Technologies). […] 200 nL of 10 mM compound (50 µM final concentrations) were then added and incubated for 5 minutes. Enzyme reactions were initiated with 10 µL of substrate Ac-DE-Dap(QXL520)-EE-Abu-ψ-[COO]AS-C(5-FAMsp)-NH2 (Anaspec) (1 µM final concentration), incubated for 6 minutes, and quenched by 10 µL of 10% SDS as a stop solution. Fluorescence intensity was monitored with a POLARstar OPTIMA microplate reader (BMG LABTECH). Each plate contained a total of 32 positive and 32 negative controls.
A series of compound concentrations (0 to 200 µM final concentration at 2-fold serial dilution) in 100% DMSO were prepared in a 384-well plate. 20 µL of enzyme solution was distributed to wells, and 0.5 µL of varying concentration of compounds were added and incubated for 5 minutes. The enzyme reaction was initiated by adding 5 µL of the substrate, and its activity was continuously monitored for 6 minutes. The IC50 values were calculated by fitting with the Hill equation (1), with OriginPro 8.5 (OriginLab, Inc.) where y is percent inhibition, x is inhibitor concentration, n is the slope of the concentration–response curve (Hill slope), and Vmax is maximal inhibition from two to four independent assays. [drawing 1] (1)

For another data set, the target named is T3, Trypsin (Homo sapiens, UniProt P07477).
T3 construct: purchased Sigma
As to the kind of experiment: Inhibitor selectivity assay, trypsin (fluorometric). In kind it is biochemical. As for the experimental part: as §1

The next data set concerns the target T4, full-length NS3/4A (Hepatitis C virus genotype 1b, UniProt Q9WMX2).
T4 construct: wild-type HCV NS3 (HCV polyprotein residues 1027–1657); His-tag (N); made in house
Description: SPR binding assay (dissociation equilibrium constant KD). Conditions: 0–200 µM compound, single referenced with blank (ethanolamine). As for the experimental part:
The full-length NS3/4A enzyme was prepared in a storage buffer (50 mM HEPES, pH 7.6, 500 mM NaCl, 1 mM DTT, 0.2% Triton X-100, and 20% glycerol) and immobilized on a CM5 sensor chip using standard amine-coupling at 25°C with running buffer HBS-P (10 mM HEPES, 150 mM NaCl, 0.05% surfactant P-20, pH 7.4) using a Biacore T100 instrument. Flow channels 1 and 3 were activated by 1-ethyl-3-(3-dimethylaminopropyl) carbodiimide hydrocholoride (EDC)/N-hydroxy succinimide (NHS) mixture, and the activated surface was blocked by ethanolamine (pH 8.5) as controls. The NS3/4A enzyme was diluted in 10 mM sodium acetate (pH 5.0), and immobilized to flow channel 4 after sensor surface activation with EDC/NHS with a 7 min injection followed by ethanolamine blocking on unoccupied surface area. NS3/4A immobilization level was ∼8,500 response units (RU). An unrelated reference protein (92 kDa) was also immobilized to flow channel 2 as another control to be compared with NS3/4A (74.6 kDa). Fifteen initial hit compounds were prepared as 10 mM DMSO stock solutions. Compound solutions with a series of increasing concentrations (0–200 µM at 1.5-fold dilution) were applied to all four channels at a 10 µL/min flow rate at 25°C. Sensorgrams were analyzed using Biaevaluation software 2.0.3, and response unit difference (ΔRU) values at each concentration were measured during the equilibration phase. Data were either single referenced with a blank (enthanolamine) or double referenced with both blank and reference protein RU values. SigmaPlot 11.0 was used to fit the data to a single rectangular hyperbolic curve to determine KD values. The hyperbola function, y = ymax·x/(KD+x), was used to plot response units and corresponding concentration, where y is the response, ymax is the maximum response, and x is the compound concentration.
(Surface plasmon resonance follows binding to a sensor surface in real time, without labels.)

Setting [3] is: read-out: IC50 Full-length NS3/4A.

Molecules are shown by their SMILES. Entries after “also recorded” stand apart in the source; their conditions may differ. Where two headings read alike, the source gives them in different places.

T2 sequence (Q9WMX2 1658-1711): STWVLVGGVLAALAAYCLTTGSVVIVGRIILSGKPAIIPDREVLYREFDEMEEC
T2 sequence (Q9WMX2 1027-1657): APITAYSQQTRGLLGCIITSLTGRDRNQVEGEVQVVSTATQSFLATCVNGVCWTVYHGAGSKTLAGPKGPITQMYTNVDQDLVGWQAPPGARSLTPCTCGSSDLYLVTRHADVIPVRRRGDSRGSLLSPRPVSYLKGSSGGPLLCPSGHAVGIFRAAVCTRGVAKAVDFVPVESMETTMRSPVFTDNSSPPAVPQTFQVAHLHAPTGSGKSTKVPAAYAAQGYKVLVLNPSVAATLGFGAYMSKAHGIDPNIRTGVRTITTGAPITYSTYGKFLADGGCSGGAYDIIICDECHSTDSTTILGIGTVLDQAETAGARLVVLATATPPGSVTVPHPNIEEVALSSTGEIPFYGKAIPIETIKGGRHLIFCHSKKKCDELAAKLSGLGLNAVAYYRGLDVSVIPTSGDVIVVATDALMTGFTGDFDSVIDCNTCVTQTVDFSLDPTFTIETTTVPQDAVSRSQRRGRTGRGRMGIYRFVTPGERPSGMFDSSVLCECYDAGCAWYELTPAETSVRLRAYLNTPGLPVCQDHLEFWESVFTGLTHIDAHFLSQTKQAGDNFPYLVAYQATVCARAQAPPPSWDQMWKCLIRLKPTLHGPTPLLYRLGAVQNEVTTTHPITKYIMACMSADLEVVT
T4 sequence (Q9WMX2 1658-1711): as the sequence (Q9WMX2 1658-1711) above
T4 sequence (Q9WMX2 1027-1657): as the sequence (Q9WMX2 1027-1657) above
T1 sequence (P17538 19-263): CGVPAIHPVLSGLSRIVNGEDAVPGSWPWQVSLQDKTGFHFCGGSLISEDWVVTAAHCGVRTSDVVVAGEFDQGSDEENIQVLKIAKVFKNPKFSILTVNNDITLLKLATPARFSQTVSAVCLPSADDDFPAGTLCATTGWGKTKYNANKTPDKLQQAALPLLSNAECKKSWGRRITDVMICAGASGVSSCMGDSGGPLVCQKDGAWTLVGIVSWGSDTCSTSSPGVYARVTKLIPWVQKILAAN

A word on the half-life: it is the time needed for the level to fall by half in the phase considered. Lower therefore signals rapid decline. For `O=C1c2c(O)ccc(O)c2C(=O)c2c(NCCNCCO)ccc(NCCNCCO)c21` [Compound 4, mitoxantrone, reference compound], the inhibition at 100 µM turned out to be 0% at Chymotrypsin (100 µM compound, read-out: Chymotrypsin % Inh at 100 µM) and 22% on Trypsin (100 µM compound, read-out: Trypsin % Inh at 100 µM). For the same molecule, the results for the IC50 (on Chymotrypsin (human chymotrypsin); in data set [2] (IC50 Full-length NS3/4A); against Trypsin (human trypsin)) were above 100 µM, 3.1 ± 0.1 µM and above 100 µM, respectively. For the same molecule, the microsomal stability in data set [1] (1 µM) turned out to be 25 min. In data set [1], this molecule displayed a half-life at 1 µM of 25.4 min. At full-length NS3/4A, the “SPR binding pattern to NS3/4A” value is “non-specific binding patterns”.
With `Cc1ccc(S(=O)(=O)Nc2ccccc2C(=O)Nc2nc3c(Br)cccc3s2)cc1` [Compound 15], the “SPR binding pattern to NS3/4A” value at full-length NS3/4A is given as “lack of binding; also recorded: did not bind”.
`O=C(Cc1csc(NS(=O)(=O)c2ccccc2)n1)Nc1ccccc1` [Compound 16]: the IC50 in data set [2] (setting [3]) turned out to be 24.9 µM.
Turning to `Cc1cc(Br)ccc1NC(=O)Cc1csc(NS(=O)(=O)c2ccccc2)n1` [Compound 17], the IC50 in data set [2] (setting [3]) was 23.5 µM.
As to `COc1ccc(S(=O)(=O)Nc2nc(CC(=O)Nc3ccc(Br)c(C)c3)cs2)cc1` [Compound 18], in data set [2], the “inhibitory activity (SAR, in words)” value was “Moderate activity”. In addition, in data set [2] (setting [3]), the IC50 is 14.4 µM.
For `COc1ccc(S(=O)(=O)Nc2nc(CC(=O)Nc3ccc(Br)cc3C)cs2)cc1` [Compound 19], the “inhibitory activity (SAR, in words)” value in data set [2] is “Moderate activity”. Also, the IC50 in data set [2] (setting [3]) was 6.2 µM.
On to `Cc1ccc(S(=O)(=O)Nc2nc(CC(=O)Nc3ccc(Br)cc3C)cs2)cc1` [Compound 20], for which, in data set [2], the “inhibitory activity (SAR, in words)” value was “complete activity loss” and the inhibition at 50 µM worked out at 29.1%. For the same molecule, in data set [2] (setting [3]), the IC50 is above 100 µM.
For `CCc1ccc(NC(=O)Cc2csc(NS(=O)(=O)c3ccc(C)cc3)n2)cc1` [Compound 21] the same measures were “complete activity loss”, 7.2% and above 100 µM.
Regarding `O=C(Cc1csc(NS(=O)(=O)c2ccccc2)n1)Nc1cccc(F)c1` [Compound 22], the IC50 in data set [2] (setting [3]) was above 100 µM. Further, the inhibition at 50 µM in data set [2] came out at 41.7%.
Turning to `O=C(Cc1csc(NS(=O)(=O)c2ccc(Cl)cc2)n1)Nc1cccc(F)c1` [Compound 23], in data set [2], the “inhibitory activity (SAR, in words)” value is given as “Moderate activity”. Further, the IC50 in data set [2] (setting [3]) was 24.2 µM.
Take `Cc1cccc(NC(=O)Cc2csc(NS(=O)(=O)c3ccc(Cl)cc3)n2)c1` [Compound 24]: the “inhibitory activity (SAR, in words)” value in data set [2] is reported as “Moderate activity”. Further, the IC50 in data set [2] (setting [3]) is 21.8 µM.
`Cc1ccc(NC(=O)Cc2csc(NS(=O)(=O)c3ccc(Cl)cc3)n2)cc1Cl` [Compound 25]: the IC50 in data set [2] (setting [3]) was above 100 µM. Besides, the inhibition at 50 µM in data set [2] came to 29.2%.
In the same order, the values of `Cc1ccc(S(=O)(=O)Nc2ccccc2C(=O)Nc2nc3c(C)ccc(C)c3s2)cc1` [Compound 26] are above 100 µM and 0%.
Turning to `Cc1ccc(S(=O)(=O)Nc2ccccc2C(=O)Nc2nc3c(Br)cccc3s2)cc1` [Compound 27], in data set [2], the “inhibitory activity (SAR, in words)” value is “activity is regained”. For the same molecule, the IC50 in data set [2] (setting [3]) amounted to 15.6 µM.
